SMILES strings stand for the structures. Where only a bound is given, the exact number is not on record here.

In one test the target is human NaV 1.8 (Homo sapiens, UniProt Q9Y5Y9). Nature of the test: E-VIPR assay detecting and measuring NaV inhibition properties. The conditions noted are these: HEK cells expressing truncated human NaV 1.8; in the presence of human serum (compound numbers followed by *); read-out: IC50 in the E-VIPR Assay, performed in the presence of human serum. The class given is cell-based. An outline of the steps: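 Membrane potential was followed by coumarin/oxonol FRET during electrical field stimulation of matrigel-seeded HEK cells carrying truncated human NaV1.8 plus KIR2.1. Dosing used 11 points, 3-fold steps, top 300 nM final, 0.625% DMSO, with or without 25% human serum.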
human NaV 1.8, sequence (Q9Y5Y9 126-399 limits assumed): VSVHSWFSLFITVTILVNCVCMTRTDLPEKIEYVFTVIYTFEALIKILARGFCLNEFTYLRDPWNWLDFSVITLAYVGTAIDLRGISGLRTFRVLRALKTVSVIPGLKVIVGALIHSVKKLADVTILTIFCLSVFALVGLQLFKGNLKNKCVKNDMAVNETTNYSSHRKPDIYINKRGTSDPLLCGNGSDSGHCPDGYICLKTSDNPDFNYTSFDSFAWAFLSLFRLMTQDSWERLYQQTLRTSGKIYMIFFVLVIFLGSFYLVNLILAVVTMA
human NaV 1.8, sequence (Q9Y5Y9 660-890 limits assumed): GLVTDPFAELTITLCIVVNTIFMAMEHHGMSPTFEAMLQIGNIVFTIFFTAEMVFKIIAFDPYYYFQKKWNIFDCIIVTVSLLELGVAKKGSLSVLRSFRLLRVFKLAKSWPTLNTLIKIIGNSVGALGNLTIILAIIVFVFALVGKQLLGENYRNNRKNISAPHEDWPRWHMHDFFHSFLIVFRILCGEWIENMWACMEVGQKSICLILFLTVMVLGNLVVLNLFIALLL
human NaV 1.8, sequence (Q9Y5Y9 1148-1722 limits assumed): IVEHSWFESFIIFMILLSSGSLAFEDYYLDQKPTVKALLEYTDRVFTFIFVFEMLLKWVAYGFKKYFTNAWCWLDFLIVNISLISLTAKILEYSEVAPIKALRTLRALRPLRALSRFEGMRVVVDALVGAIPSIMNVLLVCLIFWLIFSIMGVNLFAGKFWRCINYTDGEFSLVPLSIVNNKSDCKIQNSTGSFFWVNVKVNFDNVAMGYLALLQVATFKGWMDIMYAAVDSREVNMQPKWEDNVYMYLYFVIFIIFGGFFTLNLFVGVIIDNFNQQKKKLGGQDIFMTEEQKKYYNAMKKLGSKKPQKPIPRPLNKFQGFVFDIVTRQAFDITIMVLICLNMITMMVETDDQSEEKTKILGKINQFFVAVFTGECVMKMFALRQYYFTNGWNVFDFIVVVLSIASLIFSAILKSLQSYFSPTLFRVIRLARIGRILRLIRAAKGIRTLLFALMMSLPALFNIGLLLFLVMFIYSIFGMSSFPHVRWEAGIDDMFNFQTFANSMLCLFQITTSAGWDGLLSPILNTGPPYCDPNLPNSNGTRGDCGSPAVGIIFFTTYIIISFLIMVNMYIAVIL
Turning to `COc1cc(F)ccc1[C@H]1C[C@@](C)(C(F)(F)F)O[C@@H]1C(=O)Nc1ccnc(S(C)(=O)=O)c1` (stereo in doubt) [Compound 713, rel-(2S,3R,5S)-3-(4-fluoro-2-methoxyphenyl)-5-methyl-N-(2-(methylsulfonyl)pyridin-4-yl)-5-(trifluoromethyl)tetrahydrofuran-2-carboxamide], the IC50 was ≥ 1000 nM.

The test is the same for the next values; noted with them: HEK cells expressing truncated human NaV 1.8; no human serum; read-out: IC50 in the E-VIPR Assay.
Regarding `Cc1nn(C(F)F)cc1NC(=O)[C@@H]1O[C@@](C)(C(F)(F)F)[C@@H](C)[C@H]1c1ccc(F)c(F)c1CCN(C)C` [Compound 678, (2R,3S,4S,5R)—N-(1-(difluoromethyl)-3-methyl-1H-pyrazol-4-yl)-3-(2-(2-(dimethylamino)ethyl)-3,4-difluorophenyl)-4,5-dimethyl-5-(trifluoromethyl)tetrahydrofuran-2-carboxamide], the IC50 was in the range of 100 to 1000 nM.
As to `COc1c([C@H]2[C@H](C(=O)NC3CCOCC3)O[C@@](C)(C(F)(F)F)[C@H]2C)ccc(F)c1F` [Compound 269, (2R,3S,4S,5R)-3-(3,4-difluoro-2-methoxyphenyl)-4,5-dimethyl-N-(tetrahydro-2H-pyran-4-yl)-5-(trifluoromethyl)tetrahydrofuran-2-carboxamide], the half-maximal inhibitory concentration (IC50) was ≥ 1000 nM.
For the compound `COc1c([C@H]2[C@H](C(=O)Nc3ccc(CC4CCOCC4)nc3)O[C@@](C)(C(F)(F)F)[C@H]2C)ccc(F)c1F` [Compound 404, (2R,3S,4S,5R)-3-(3,4-difluoro-2-methoxyphenyl)-4,5-dimethyl-N-(6-((tetrahydro-2H-pyran-4-yl)methyl)pyridin-3-yl)-5-(trifluoromethyl)-tetrahydrofuran-2-carboxamide], the concentration for half-maximal inhibition (IC50) is 100 to 1000 nM.
On the same count and under the same terms, the value for `CNCC(=O)Nc1cc(NC(=O)[C@@H]2O[C@@](C)(C(F)(F)F)[C@@H](C)[C@H]2c2ccc(F)c(F)c2OC)ccn1` [Compound 488] was 10 to 100 nM; that for `COc1c([C@H]2[C@H](C(=O)Nc3ccnc(C4(O)CCOC4)c3)O[C@@](C)(C(F)(F)F)[C@H]2C)ccc(F)c1F` (single isomer, unassigned) [Compound 220, rel-(2R*,3S*,4S*,5R*)-3-(3,4-difluoro-2-methoxyphenyl)-N-(2-(3-hydroxy-tetrahydrofuran-3-yl)pyridin-4-yl)-4,5-dimethyl-5-(trifluoromethyl)tetrahydrofuran-2-carboxamide] was < 10 nM.
As for `COc1c([C@H]2[C@H](C(=O)Nc3ccnc(OC4CCOCC4)c3)O[C@@](C)(C(F)(F)F)[C@H]2C)ccc(F)c1F` [Compound 195, (2R,3S,4S,5R)-3-(3,4-difluoro-2-methoxyphenyl)-4,5-dimethyl-N-(2-((tetrahydro-2H-pyran-4-yl)oxy)pyridin-4-yl)-5-(trifluoromethyl)tetrahydrofuran-2-carboxamide], the IC50 fell in the range of 10 to 100 nM.
In the case of `C[C@H]1[C@@H](c2ccc(F)c(F)c2OCCN2CCOCC2)[C@H](C(=O)Nc2cccnc2)O[C@@]1(C)C(F)(F)F` [Compound 587, (2R,3S,4S,5R)-3-(3,4-difluoro-2-(2-morpholinoethoxy)phenyl)-4,5-dimethyl-N-(pyridin-3-yl)-5-(trifluoromethyl)tetrahydrofuran-2-carboxamide], the IC50 is 10 to 100 nM.
Consider `Cc1nn(C(F)F)cc1NC(=O)[C@@H]1O[C@@](C)(C(F)(F)F)[C@@H](C)[C@H]1c1ccc(F)c(F)c1OCC1COC1` [Compound 579, (2R,3S,4S,5R)-3-(3,4-difluoro-2-(oxetan-3-ylmethoxy)phenyl)-N-(1-(difluoromethyl)-3-methyl-1H-pyrazol-4-yl)-4,5-dimethyl-5-(trifluoromethyl)tetrahydrofuran-2-carboxamide], for which the half-maximal inhibitory concentration (IC50) is < 10 nM.
`COCCOc1c([C@H]2[C@H](C(=O)Nc3cnn(C(C)(C)CO)c3)O[C@@](C)(C(F)(F)F)[C@H]2C)ccc(F)c1F` [Compound 582, (2R,3S,4S,5R)-3-(3,4-difluoro-2-(2-methoxyethoxy)phenyl)-N-(1-(1-hydroxy-2-methylpropan-2-yl)-1H-pyrazol-4-yl)-4,5-dimethyl-5-(trifluoromethyl)tetrahydrofuran-2-carboxamide]: the concentration for half-maximal inhibition (IC50) lay within 100 to 1000 nM.
The same measure, in the same setting: the figure for `COc1c([C@H]2[C@H](C(=O)NCc3nc(C(C)C)no3)O[C@@](C)(C(F)(F)F)[C@H]2C)ccc(F)c1F` [Compound 289, (2R,3S,4S,5R)-3-(3,4-difluoro-2-methoxyphenyl)-N-((3-isopropyl-1,2,4-oxadiazol-5-yl)methyl)-4,5-dimethyl-5-(trifluoromethyl)tetrahydrofuran-2-carboxamide] is ≥ 1000 nM.
Still for that read-out and setting: the value for `COc1c([C@H]2[C@H](C(=O)Nc3ccnc(N4CCC[C@@H]4CO)c3)O[C@@](C)(C(F)(F)F)[C@H]2C)ccc(F)c1F` [Compound 520, (2R,3S,4S,5R)-3-(3,4-difluoro-2-methoxy-phenyl)-N-[2-[(2R)-2-(hydroxymethyl)pyrrolidin-1-yl]-4-pyridyl]-4,5-dimethyl-5-(trifluoromethyl)tetrahydrofuran-2-carboxamide] was 10 to 100 nM.
Take `COCC(C)(C)NCc1cc(NC(=O)[C@@H]2O[C@@](C)(C(F)(F)F)[C@@H](C)[C@H]2c2ccc(F)c(F)c2OC)ccn1` [Compound 410, (2R,3S,4S,5R)-3-(3,4-difluoro-2-methoxyphenyl)-N-(2-(((1-methoxy-2-methylpropan-2-yl)amino)methyl)-pyridin-4-yl)-4,5-dimethyl-5-(trifluoromethyl)-tetrahydrofuran-2-carboxamide]: the IC50 lay in the range of 10 to 100 nM.
Regarding `C[C@H]1[C@@H](c2ccc(F)c(F)c2OCCN2CC(F)C2)[C@H](C(=O)Nc2ccc3nncn3c2)O[C@@]1(C)C(F)(F)F` [Compound 635], the half-inhibitory concentration (IC50) lay within 10 to 100 nM.
Turning to `COc1c([C@H]2[C@H](C(=O)NC3CCN(C(N)=O)CC3)O[C@@](C)(C(F)(F)F)[C@H]2C)ccc(F)c1F` [Compound 303, 4-((2R,3S,4S,5R)-3-(3,4-difluoro-2-methoxyphenyl)-4,5-dimethyl-5-(trifluoromethyl)tetrahydrofuran-2-carboxamido)piperidine-1-carboxamide], the half-maximal inhibitory concentration (IC50) was ≥ 1000 nM.
In the case of `COc1c([C@H]2[C@H](C(=O)Nc3ccc(-c4ccccn4)nc3)O[C@@](C)(C(F)(F)F)[C@H]2C)ccc(F)c1F` [Compound 396, (2R,3S,4S,5R)-N-([2,2′-bipyridin]-5-yl)-3-(3,4-difluoro-2-methoxyphenyl)-4,5-dimethyl-5-(trifluoromethyl)-tetrahydrofuran-2-carboxamide], the IC50 is ≥ 1000 nM.
For the compound `Cc1nn(C(N)=O)cc1NC(=O)[C@@H]1O[C@@](C)(C(F)(F)F)[C@@H](C)[C@H]1c1ccc(F)c(F)c1OCCN1CCOCC1` [Compound 593, 4-((2R,3S,4S,5R)-3-(3,4-difluoro-2-(2-morpholinoethoxy)phenyl)-4,5-dimethyl-5-(trifluoromethyl)tetrahydrofuran-2-carboxamido)-3-methyl-1H-pyrazole-1-carboxamide], the IC50 is 10 to 100 nM.
For `CCOc1c([C@@H]2[C@@H](C(=O)Nc3cncc(S(C)(=O)=O)c3)O[C@](C)(C(F)(F)F)[C@@H]2C)ccc(F)c1F` (stereo in doubt) [Compound 106, rel-(2S,3R,4R,5S)-3-(2-ethoxy-3,4-difluorophenyl)-4,5-dimethyl-N-(5-(methylsulfonyl)pyridin-3-yl)-5-(trifluoromethyl)tetrahydrofuran-2-carboxamide], the IC50 was in the range of 100 to 1000 nM.
